According to ChEMBL document CHEMBL5120967, “Development of an Orally Active Small-Molecule Inhibitor of Receptor Activator of Nuclear Factor-κB Ligand” (J Med Chem, 2022):
Active and inactive are the calls of the source. The rule behind the calls is not given here.

Experiments:
[1] = Anti-osteoporosis activity C57/BL6 mouse bone marrow macrophage cells assessed as inhibition of RANKL-induced osteoclastogenesis at 1 uM measured after 5 to 6 days in presence of M-CSF and RNKL by TRAP staining microscopic analysis; format: functional, BMDM; parameters: scale not given: the % may be the effect or the level left; settings: time 5-6 day
[2] = Anti-osteoporosis activity C57/BL6 mouse bone marrow macrophage cells assessed as inhibition of RANKL-induced osteoclastogenesis at 0.1 uM measured after 5 to 6 days in presence of M-CSF and RNKL by TRAP staining microscopic analysis; format: functional, BMDM; parameters: scale not given: the % may be the effect or the level left; settings: time 5-6 day
BMDM [3] = assay: Cytotoxicity against C57/BL6 mouse bone marrow macrophage cells assessed as reduction in cell viability at 10 uM incubated for 3 days by CCK8 assay; format: toxicity, cell-based; settings: 72 h, time 3 day
BMDM [4] = assay: Anti-osteoporosis activity C57/BL6 mouse bone marrow macrophage cells assessed as inhibition of RANKL-induced osteoclastogenesis and measured after 5 to 6 days in presence of M-CSF by TRAP staining based assay; format: functional, cell-based; settings: dose 0.1-5 µM, time 5-6 day, DDE = dose-dependent effect
BMDM [5] = assay: Cytotoxicity against C57/BL6 mouse bone marrow macrophage cells at 5 uM measured after 3 days in presence of M-CSF by CCK-8 assay; format: toxicity, cell-based; settings: 72 h, time 3 day
BMDM [6] = assay: Anti-osteoporosis activity C57/BL6 mouse bone marrow macrophage cells assessed as inhibition of RANKL-induced F-actin levels upto 5 uM measured after 5 to 6 days in presence of M-CSF by DAPI staining analysis; format: functional, cell-based; settings: time 5-6 day
BMDM [7] = assay: Anti-osteoporosis activity C57/BL6 mouse bone marrow macrophage cells assessed as inhibition of RANKL-induced F-actin size upto 5 uM measured after 5 to 6 days in presence of M-CSF by DAPI staining analysis; format: functional, cell-based; settings: time 5-6 day
[8] = Anti-osteoporosis activity C57/BL6 mouse bone marrow macrophage cells assessed as inhibition of RANKL-induced osteoclastogenesis measured after 5 to 6 days in presence of M-CSF by DAPI staining analysis; format: functional, cell-based; settings: bmdm
BMDM [9] = assay: Inhibition of RANKL-induced TRAP in mRNA expression in C57/BL6 mouse bone marrow macrophage cells upto 5 uM measured after 3 days by qRT-PCR analysis; format: functional, cell-based; settings: time 3.0 day
BMDM [10] = assay: Inhibition of RANKL-induced Cathepsin K in mRNA expression in C57/BL6 mouse bone marrow macrophage cells upto 5 uM measured after 3 days by qRT-PCR analysis; format: functional, cell-based; settings: time 3.0 day
BMDM [11] = assay: Inhibition of RANKL-induced c-fos in mRNA expression in C57/BL6 mouse bone marrow macrophage cells upto 5 uM measured after 3 days by qRT-PCR analysis; format: functional, cell-based; settings: time 3.0 day
BMDM [12] = assay: Inhibition of RANKL-induced NFATc1 in mRNA expression in C57/BL6 mouse bone marrow macrophage cells upto 5 uM measured after 3 days by qRT-PCR analysis; format: functional, cell-based; settings: time 3.0 day
[13] = target: T1, Tumor necrosis factor ligand superfamily member 11 (Homo sapiens, UniProt O14788); assay: Binding affinity to human RANKL assessed as dissociation constant by surface plasmon resonance method
T1 sequence (O14788 whole entry): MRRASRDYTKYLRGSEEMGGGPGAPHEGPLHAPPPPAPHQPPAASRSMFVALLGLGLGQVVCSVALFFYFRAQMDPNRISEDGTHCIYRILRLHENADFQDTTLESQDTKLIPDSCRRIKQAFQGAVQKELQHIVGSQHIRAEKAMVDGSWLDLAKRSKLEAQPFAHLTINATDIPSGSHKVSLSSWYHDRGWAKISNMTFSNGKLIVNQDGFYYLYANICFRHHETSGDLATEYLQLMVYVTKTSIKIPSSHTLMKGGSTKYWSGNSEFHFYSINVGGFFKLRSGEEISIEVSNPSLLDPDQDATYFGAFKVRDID

BMDM [14] = assay: Inhibition of RANKL-induced c-FOS protein expression in C57/BL6 mouse bone marrow macrophage cells upto 10 uM measured for 3 days in presence of M-CSF and RANKL by Western blot analysis; format: functional, cell-based; settings: time 3.0 day, DDE = dose-dependent effect
BMDM [15] = assay: Inhibition of RANKL-induced NFATC1 protein expression in C57/BL6 mouse bone marrow macrophage cells upto 10 uM measured for 3 days in presence of M-CSF and RANKL by Western blot analysis; format: functional, cell-based; settings: time 3.0 day, DDE = dose-dependent effect
[16] = AUC(0 to t) in OVX-induced C57/BL6 mouse model at 3 mg/kg, iv; format: ADME, organism-based; parameters: dose 3 mg/kg, route iv; settings: female, in vivo
[17] = Half life in OVX-induced C57/BL6 mouse model at 3 mg/kg, iv; format: ADME, organism-based; settings: female, in vivo
[18] = Clearance in OVX-induced C57/BL6 mouse model at 3 mg/kg, iv; format: ADME, organism-based; settings: female, in vivo
[19] = Oral bioavailability in OVX-induced C57/BL6 mouse model; format: ADME, organism-based; settings: female, in vivo
Mus musculus [20] = assay: Anti-osteoporosis activity in OVX-induced C57/BL6 mouse model assessed as increase in bone mineral density by measuring recovery at 60 mg/kg, po once per day for 28 days by microCT imaging analysis; format: functional; settings: time 28 day
[21] = AUC(0 to t) in OVX-induced C57/BL6 mouse model at 5 mg/kg, po; format: ADME, organism-based; parameters: dose 5 mg/kg, route po; settings: female, in vivo
[22] = Cmax in OVX-induced C57/BL6 mouse model at 5 mg/kg, po; format: ADME, organism-based; parameters: dose 5 mg/kg, route po; settings: female, in vivo
[23] = Half life in OVX-induced C57/BL6 mouse model at 5 mg/kg, po; format: ADME, organism-based; settings: female, in vivo
Mus musculus [24] = assay: Anti-osteoporosis activity in ligature-induced periodontal BALB/c mouse model assessed as decrease in bone loss at 20 mg/kg, ip measured for 4 weeks by microCT imaging analysis; format: functional, organism-based
Mus musculus [25] = assay: Anti-osteoporosis activity in ligature-induced periodontal BALB/c mouse model assessed as increase in alveolar bone mass at 20 mg/kg, ip measured for 4 weeks by microCT imaging analysis; format: functional
Mus musculus [26] = assay: Anti-osteoporosis activity in ligature-induced periodontal BALB/c mouse model assessed as increase in bone volume at 20 mg/kg, ip measured for 4 weeks by microCT imaging analysis; format: functional
Mus musculus [27] = assay: Anti-osteoporosis activity in ligature-induced periodontal BALB/c mouse model assessed as increase in vertical bone at 20 mg/kg, ip measured for 4 weeks by microCT imaging analysis; format: functional

SMILES: Cc1cccc(C)c1NC(=O)c1cc2c([nH]c3ccccc32)c(CCc2ccccc2)n1
- Activity [1]: 89.3%
- Activity [2]: 45.9%
- Cell viability (BMDM [3]): > 100%
- Activity (BMDM [4]): Dde
- Activity (BMDM [5]): Non-Toxic
- Activity (BMDM [6]): Active
- Activity (BMDM [7]): Active
- IC50 [8]: 520 nM
- inhibition (BMDM [9]): Active
- inhibition (BMDM [10]): Active
- inhibition (BMDM [11]): Active
- inhibition (BMDM [12]): Active
- Kd [13]: 5.03 µM
- inhibition (BMDM [14]): Dde
- inhibition (BMDM [15]): Dde
- AUC(0-t) [16]: 2710 ng·h/mL
- half-life [17]: 306 min
- clearance [18]: 18.6 mL/min/kg
- bioavailability [19]: 4.9%
- Activity (Mus musculus [20]): 23.4%
- AUC(0-t) [21]: 223 ng·h/mL
- Cmax [22]: 48.1 ng/mL
- half-life [23]: 120 min
- Activity (Mus musculus [24]): Active
- Activity (Mus musculus [25]): 60.7%
- Activity (Mus musculus [26]): 51.9%
- Activity (Mus musculus [27]): 67%
